From patent US20250073226A1, “USE OF OPIOID FOR TREATMENT OF AUTISM SPECTRUM DISORDERS” (priority 2021, published 2025)
“And” between values parts separate entries of the source, which are not always exact repeats. Equal entries are not always repeated.

What was measured:
[1] = Pharmacokinetic: drug concentrations in plasma by LC-MS after subcutaneous administration; details: ICR mice
mice = details: Non-patent Document 28; cited from earlier work
[2] = system: model similar to this experiment; details: 3 hours after administration; Horm Behav. 2017 November; 96:130-136; cited from earlier work
[3] = morphine hydrochloride 0.03 mg/kg s.c., Average value
[4] = morphine hydrochloride 0.03 mg/kg s.c., individual animals
[5] = morphine hydrochloride 0.1 mg/kg s.c., Average value
[6] = morphine hydrochloride 0.1 mg/kg s.c., individual animals
[7] = morphine hydrochloride 3 mg/kg s.c., Average value
[8] = morphine hydrochloride 3 mg/kg s.c., individual animals

## CN1CC[C@]23c4c5ccc(O)c4O[C@H]2[C@@H](O[C@@H]2O[C@H](C(=O)O)[C@@H](O)[C@H](O)[C@H]2O)C=C[C@H]3[C@H]1C5 [M6G]
[1]; [3]
  Plasma concentration M6G After 15 minutes: 13.2 ng/mL
  Plasma concentration M6G After 60 minutes: 5.09 ng/mL
  Plasma concentration M6G After 90 minutes: 0.488 ng/mL
[1]; [4]
  Plasma concentration M6G After 15 minutes: 10.4 ng/mL and 15.7 ng/mL and 13.6 ng/mL
  Plasma concentration M6G After 60 minutes: 6.28 ng/mL and 5.05 ng/mL and 3.95 ng/mL
  Plasma concentration M6G After 90 minutes: 0 ng/mL and 0.806 ng/mL and 0.657 ng/mL
[1]; [5]
  Plasma concentration M6G After 15 minutes: 44.6 ng/mL
  Plasma concentration M6G After 90 minutes: 3.41 ng/mL
[1]; morphine hydrochloride 0.1 mg/kg s.c., Average value (N = 3 excluded as outlier)
  Plasma concentration M6G After 60 minutes: 7.65 ng/mL
[1]; [6]
  Plasma concentration M6G After 15 minutes: 47.7 ng/mL and 35.3 ng/mL and 50.7 ng/mL
  Plasma concentration M6G After 60 minutes: 0 ng/mL and 15.3 ng/mL
  Plasma concentration M6G After 90 minutes: 2.98 ng/mL and 4.4 ng/mL and 2.85 ng/mL
[1]; [7]
  Plasma concentration M6G After 15 minutes: 1196 ng/mL
  Plasma concentration M6G After 60 minutes: 646 ng/mL
  Plasma concentration M6G After 90 minutes: 298 ng/mL
[1]; [8]
  Plasma concentration M6G After 15 minutes: 1250 ng/mL and 1340 ng/mL and 998 ng/mL
  Plasma concentration M6G After 60 minutes: 829 ng/mL and 580 ng/mL and 528 ng/mL
  Plasma concentration M6G After 90 minutes: 320 ng/mL and 240 ng/mL and 335 ng/mL

## CN1CC[C@]23c4c5ccc(O)c4O[C@H]2[C@@H](O)C=C[C@H]3[C@H]1C5 [morphine]
mice
  dose at which the analgesic effect was maximum: 8 mg/kg

## CC[C@H](C)[C@@H]1NC(=O)[C@H](Cc2ccc(O)cc2)NC(=O)[C@@H](N)CSSC[C@@H](C(=O)N2CCC[C@H]2C(=O)N[C@@H](CC(C)C)C(=O)NCC(N)=O)NC(=O)[C@H](CC(N)=O)NC(=O)[C@H](CCC(N)=O)NC1=O [oxytocin]
[2]
  improvement effect of social impairment, persistence: the drug efficacy disappears
